# Measured values published in patent US7419969B2 (Bristol-Myers Squibb Company, priority 2004, dated 2008).
# Target: T1, HIV-integrase (Human immunodeficiency virus type 1 group M subtype B, UniProt P04585)
# T1 construct: Recombinant integrase (0.26 ng) was incubated with the beads
# Assay: in-vitro activity against HIV-integrase (HIV Integrase Inhibition, SPA bead assay)
# Format: biochemical
# Conditions: Table 1; recombinant integrase, activity class
# Method: To evaluate in-vitro activity against HIV-integrase, 5 pmole of biotin labeled substrate DNA was bound to 100 μg of Streptavidin coated PVT SPA beads (Amersham Pharmacia Biotech). Recombinant integrase (0.26 ng) was incubated with the beads for 90 min at 37° C. Unbound enzyme was removed by washing the complex followed by addition of inhibitors and […] of P33 labeled target DNA. The reaction was stopped by adding EDTA to a final concentration of 10 mM. Samples were counted in TopCountNXT (Packard) and the CPM was used as a measure of integration. The reaction condition was as described in Engelman, A. and Craigie, R. J. Vitrol. 1996, 69, 5908. The sequences of substrate and target DNA were described in Nucleic Acid Research 1994, 22, 1121.
row,SMILES,IC50 [nM]
1,"CN(C)S(=O)(=O)c1cc(F)ccc1CNC(=O)c1nc2n(c(=O)c1O)CCC21CCCC1 [Example 86, N-[[2-[(dimethylamino)sulfonyl]-4-fluorophenyl]methyl]-6′,7′-dihydro-3′-hydroxy-4′-oxo-spiro[cyclopentane-1,8′(4′H)-pyrrolo[1,2-α]pyrimidine]-2′-carboxamide]",10 to 100
2,"CN(C)S(=O)(=O)c1cc(F)ccc1CNC(=O)c1nc2n(c(=O)c1O)CCCC21CCCC1 [Example 10, N-[[2-[(dimethylamino)sulfonyl]-4-fluorophenyl]methyl]-7′,8′-dihydro-3′-hydroxy-4′-oxo-spiro[cyclopentane-1,9′(6′H)-[4H]pyrido[1,2-α]pyrimidine]-2′-carboxamide]",1 to 10
3,"Cc1cc(CNC(=O)c2nc3n(c(=O)c2O)CCCC32CCC2)ccc1F [Example 72, N-[(4-fluoro-3-methylphenyl)methyl]-7′,8′-dihydro-3′-hydroxy-4′-oxo-spiro[cyclobutane-1,9′(6′H)-[4H]pyrido[1,2-α]pyrimidine]-2′-carboxamide]",1 to 10
4,"Cc1ncnn1-c1cc(F)ccc1CNC(=O)c1nc2n(c(=O)c1O)CCOC21CCCC1 [Example 32, N-[[4-fluoro-2-(5-methyl-1H-1,2,4-triazol-1-yl)phenyl]methyl]-6′,7′-dihydro-3′-hydroxy-4′-oxo-spiro[cyclopentane-1,9′(4′H)-pyrimido[2,1-c][1,4]oxazine]-2′-carboxamide]",1 to 10
5,"O=C(NCc1ccc(F)cc1-n1cncn1)c1nc2n(c(=O)c1O)CCCC21CCC1 [Example 78, N-[[4-fluoro-2-(1H-1,2,4-triazol-1-yl)phenyl]methyl]-7′,8′-dihydro-3′-hydroxy-4′-oxo-spiro[cyclobutane-1,9′(6^1′H)-[4H]pyrido[1,2-α]pyrimidine]-2′-carboxamide]",1 to 10
6,"O=C(NCc1cc(F)ccc1-n1cncn1)c1nc2n(c(=O)c1O)CCCC21CCCC1 [Example 5, N-[[5-fluoro-2-(1H-1,2,4-triazol-1-yl)phenyl]methyl]-7′,8′-dihydro-3′-hydroxy-4′-oxo-spiro[cyclopentane-1,9′(6′H)-[4H]pyrido[1,2-α]pyrimidine]-2′-carboxamide]",1 to 10
7,"O=C(NCc1cccc(F)c1)c1nc2n(c(=O)c1O)CCOC21CCCC1 [Example 26, N-[(3-fluorophenyl)methyl]-6′,7′-dihydro-3 ′-hydroxy-4′-oxo-spiro[cyclopentane-1,9′(4′H)-pyrimido[2,1-c][1,4]oxazine]-2′-carboxamide]",10 to 100
8,"CN(C)S(=O)(=O)c1cc(F)ccc1CNC(=O)c1nc2n(c(=O)c1O)CCCC21CCC1 [Example 82, N-[[2-[(dimethylamino)sulfonyl]-4-fluorophenyl]methyl]-7′,8′-dihydro-3′-hydroxy-4′-oxo-spiro[cyclobutane-1,9′(6′H)-[4H]pyrido[1,2-α]pyrimidine]-2′-carboxamide]",1 to 10
9,"CS(=O)(=O)c1cc(F)ccc1CNC(=O)c1nc2n(c(=O)c1O)CCCOC21CCC1 [Example 58, N-[[4-fluoro-2-(methylsulfonyl)phenyl]methyl]-7′,8′-dihydro-3′-hydroxy-4′-oxo-spiro[cyclobutane-1,10′(4′H)-[6H]pyrimido[2,1-c][1,4]oxazepine]-2′-carboxamide]",10 to 100
10,"O=C(NCc1ccc(F)cc1)c1nc2n(c(=O)c1O)CCOC21CCC1 [Example 52, N-[(4-fluorophenyl)methyl]-6′,7′-dihydro-3′-hydroxy-4′-oxo-spiro[cyclobutane-1,9′(4′H)-pyrimido[2,1-c][1,4]oxazine]-2′-carboxamide]",1 to 10

# Same assay, conditions: Table 1a; recombinant integrase, activity class
row,SMILES,IC50 [nM]
1,"O=C(NCc1ccccc1N1CCOC1=O)c1nc2n(c(=O)c1O)CCOC21CCC1 [Example 126, Spiro[cyclobutane-1,9′(4′H)-pyrimido[2,1-c][1,4]oxazine]-2′-carboxamide, 6′,7′-dihydro-3′-hydroxy-4′-oxo-N-[[2-(2-oxo-3-oxazolidinyl)phenyl]methyl]-]",1 to 10
